Reference: patent US9670194B2 (Calitor Sciences, LLC, priority 2013, dated 2017)
pIC50: −log10 of the molar value.

How the values were obtained:
[1] = Compound stability in rat liver microsomes; type: in vitro ADME; details: pH 7.4; for half-life at 5 μM: rat liver microsomes 0.5 mg protein/mL, compound 5 μM, NADPH 1.0 mM, 37° C.; for CLint scaled at 5 μM: rat liver microsomes, in vivo CLint extrapolated
PI3K (p110δ/p85α) (h) = PI3K (p110δ/p85α) (h) (Homo sapiens (Human), UniProt O00329); test: PI3K (p110δ/p85α) (h) non-radioactive HTRF kinase assay; type: biochemical
Chain of PI3K (p110δ/p85α) (h) (O00329 whole entry): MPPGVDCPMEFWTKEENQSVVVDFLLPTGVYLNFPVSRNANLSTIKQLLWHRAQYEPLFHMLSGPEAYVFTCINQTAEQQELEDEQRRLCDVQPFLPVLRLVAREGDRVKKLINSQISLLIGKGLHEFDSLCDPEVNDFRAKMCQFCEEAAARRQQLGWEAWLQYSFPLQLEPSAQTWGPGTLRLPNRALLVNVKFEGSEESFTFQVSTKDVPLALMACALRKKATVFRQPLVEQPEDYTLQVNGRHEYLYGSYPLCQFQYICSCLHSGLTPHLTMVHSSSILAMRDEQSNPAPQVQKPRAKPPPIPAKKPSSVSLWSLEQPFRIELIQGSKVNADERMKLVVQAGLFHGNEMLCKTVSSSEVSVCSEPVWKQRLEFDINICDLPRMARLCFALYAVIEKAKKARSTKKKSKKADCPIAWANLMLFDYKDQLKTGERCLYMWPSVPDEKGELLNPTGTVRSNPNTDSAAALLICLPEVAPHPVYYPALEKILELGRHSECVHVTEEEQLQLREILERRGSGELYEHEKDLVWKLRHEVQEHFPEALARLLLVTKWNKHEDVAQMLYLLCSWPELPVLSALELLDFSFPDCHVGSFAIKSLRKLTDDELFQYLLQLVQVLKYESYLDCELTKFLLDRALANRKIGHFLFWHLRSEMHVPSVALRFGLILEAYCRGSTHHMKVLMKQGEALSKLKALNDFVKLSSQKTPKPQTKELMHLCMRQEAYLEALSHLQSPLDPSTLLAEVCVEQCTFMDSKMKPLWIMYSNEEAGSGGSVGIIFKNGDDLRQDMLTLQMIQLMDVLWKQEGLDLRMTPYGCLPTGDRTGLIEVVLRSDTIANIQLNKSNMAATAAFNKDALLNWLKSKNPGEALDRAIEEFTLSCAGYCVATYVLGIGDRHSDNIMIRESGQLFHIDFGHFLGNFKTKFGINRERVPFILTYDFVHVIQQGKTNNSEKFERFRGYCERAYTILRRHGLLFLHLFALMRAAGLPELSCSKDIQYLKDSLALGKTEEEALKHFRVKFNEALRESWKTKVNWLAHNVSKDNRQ
Chain of PI3K (p110δ/p85α) (h) (P27986 whole entry partner): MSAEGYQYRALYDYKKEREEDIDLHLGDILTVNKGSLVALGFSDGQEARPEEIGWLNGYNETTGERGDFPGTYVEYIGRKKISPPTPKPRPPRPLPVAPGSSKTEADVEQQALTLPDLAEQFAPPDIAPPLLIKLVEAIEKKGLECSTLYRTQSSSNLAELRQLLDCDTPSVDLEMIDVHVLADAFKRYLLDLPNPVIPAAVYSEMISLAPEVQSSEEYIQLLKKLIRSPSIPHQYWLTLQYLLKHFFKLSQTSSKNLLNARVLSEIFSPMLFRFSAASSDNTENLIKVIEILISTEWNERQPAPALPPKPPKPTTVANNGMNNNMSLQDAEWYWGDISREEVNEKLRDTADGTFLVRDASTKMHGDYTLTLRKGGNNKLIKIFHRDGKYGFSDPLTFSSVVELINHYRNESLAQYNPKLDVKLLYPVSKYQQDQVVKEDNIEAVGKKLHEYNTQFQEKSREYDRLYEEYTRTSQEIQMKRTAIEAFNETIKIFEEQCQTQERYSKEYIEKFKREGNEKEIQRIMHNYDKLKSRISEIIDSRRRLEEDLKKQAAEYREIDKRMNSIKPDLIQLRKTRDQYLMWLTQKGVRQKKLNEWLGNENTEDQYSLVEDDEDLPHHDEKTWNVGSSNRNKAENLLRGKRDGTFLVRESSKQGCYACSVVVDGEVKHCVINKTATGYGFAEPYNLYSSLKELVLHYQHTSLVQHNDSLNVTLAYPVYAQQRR

[2] = Pharmacokinetics after intravenous and oral administration in rats; type: in vivo, rat; details: for clearance (CL) / AUC(0-t) / half-life / Vd: iv dosing, dose 1 mg/kg; for AUC(0-t) / half-life / Vd / bioavailability: rat, plasma; for Vd: read-out: Vss; for bioavailability: iv dose 1 mg/kg, oral dose generally 5 or 10 mg/kg
[3] = Compound stability in human liver microsomes; type: in vitro ADME; details: for half-life at 5 μM: human liver microsomes 0.5 mg protein/mL, compound 5 μM, NADPH 1.0 mM, 37° C.; for CLint scaled at 5 μM: human liver microsomes, in vivo CLint extrapolated

SMILES	half-life at 5 μM [1]	CLint scaled at 5 μM [1]	pIC50 (PI3K (p110δ/p85α) (h))	clearance (CL) [2]	AUC(0-t) [2]	half-life [2]	Vd [2]	half-life at 5 μM [3]	CLint scaled at 5 μM [3]	bioavailability [2]
CC[C@H](Nc1ncnc(N)c1-c1ncn(C)n1)c1nc2cccc(F)c2c(=O)n1C1CC1 [Ex. 26, (S)-2-(1-((6-amino-5-(1-methyl-1H-1,2,4-triazol-3-yl)pyrimidin-4-yl)amino)propyl)-3-cyclopropyl-5-fluoroquinazolin-4(3H)-one]	66.3 min	37.4 mL/min/kg	5.64	37 mL/min/kg	443 ng·h/mL	128 min	2.5 L/kg	74.5 min	33.4 mL/min/kg	45.8%
CC[C@H](Nc1ncnc(N)c1-c1nc(C)no1)c1nc2cccc(Cl)c2c(=O)n1[C@@H]1C[C@@H]1F [Ex. 62, 2-((S)-1-((6-amino-5-(3-methyl-1,2,4-oxadiazol-5-yl)pyrimidin-4-yl)amino)propyl)-5-chloro-3-((1R,2S)-2-fluorocyclopropyl)quinazolin-4(3H)-one]	46.2 min	53.7 mL/min/kg	7.43	71.8 mL/min/kg	238 ng·h/mL	81 min	6.11 L/kg	50.4 min	34.5 mL/min/kg	27.7%
CC[C@H](Nc1ncnc(N)c1-c1nnc(C)o1)c1nc2cccc(C)c2c(=O)n1C1CC1 [Ex. 20, (S)-2-(1-((6-amino-5-(5-methyl-1,3,4-oxadiazol-2-yl)pyrimidin-4-yl)amino)propyl)-3-cyclopropyl-5-methylquinazolin-4(3H)-one]	9.27 min	268 mL/min/kg	7.31	77.3 mL/min/kg	215 ng·h/mL	63 min	6.35 L/kg	9.96 min	249 mL/min/kg	79%
CC[C@H](Nc1ncnc(N)c1-c1ncn(C)n1)c1nc2cccc(Cl)c2c(=O)n1-c1ccccc1 [Ex. 32, (S)-2-(1-((6-amino-5-(1-methyl-1H-1,2,4-triazol-3-yl)pyrimidin-4-yl)amino)-propyl)-5-chloro-3-phenylquinazolin-4(3H)-one]	20 min	124 mL/min/kg	7.15	43.3 mL/min/kg	390 ng·h/mL	37.8 min	1.51 L/kg	17.4 min	100 mL/min/kg	61%
CC[C@H](Nc1ncnc(N)c1-c1nnc(C)o1)c1nc2cccc(C)c2c(=O)n1-c1ccccc1 [Ex. 38, (S)-2-(1-((6-amino-5-(5-methyl-1,3,4-oxadiazol-2-yl)pyrimidin-4-yl)amino)-propyl)-5-methyl-3-phenylquinazolin-4(3H)-one]	8.57 min	290 mL/min/kg	7.92	71.3 mL/min/kg	236 ng·h/mL	39.3 min	3.05 L/kg	16 min	109 mL/min/kg	36.6%
Cc1nc(-c2c(N)ncnc2N[C@@H](C)c2nc3cccc(Cl)c3c(=O)n2C2CC2)no1 [Ex. 33, (S)-2-(1-((6-amino-5-(5-methyl-1,2,4-oxadiazol-3-yl)pyrimidin-4-yl)amino)-ethyl)-5-chloro-3-cyclopropylquinazolin-4(3H)-one]	8.68 min	286 mL/min/kg	7.17	65.5 mL/min/kg	241 ng·h/mL	432 min	14.3 L/kg	11.9 min	146 mL/min/kg	5.59%
CC[C@H](Nc1ncnc(N)c1-c1nc(C)no1)c1nc2cccc(F)c2c(=O)n1C1CC1 [Ex. 23, (S)-2-(1-((6-amino-5-(3-methyl-1,2,4-oxadiazol-5-yl)pyrimidin-4-yl)amino)-propyl)-3-cyclopropyl-5-fluoroquinazolin-4(3H)-one]	56.9 min	43.7 mL/min/kg	7.28	71.3 mL/min/kg	237 ng·h/mL	56.4 min	5.02 L/kg	44.3 min	56 mL/min/kg	34.1%
CC[C@H](Nc1ncnc(N)c1-c1nc(C)no1)c1nc2ccccc2c(=O)n1-c1ccccc1F [Ex. 22, (S)-2-(1-((6-amino-5-(3-methyl-1,2,4-oxadiazol-5-yl)pyrimidin-4-yl)amino)propyl)-3-(2-fluorophenyl)quinazolin-4(3H)-one]	7.95 min	312 mL/min/kg	7.59	159 mL/min/kg	104 ng·h/mL	51 min	9.46 L/kg	15.3 min	163 mL/min/kg	29.8%
CC(C)c1nc(-c2c(N)ncnc2N[C@@H](C)c2nc3cccc(Cl)c3c(=O)n2C2CC2)no1 [Ex. 59, (S)-2-(1-((6-amino-5-(5-isopropyl-1,2,4-oxadiazol-3-yl)pyrimidin-4-yl)amino)ethyl)-5-chloro-3-cyclopropylquinazolin-4(3H)-one]	3.36 min	739 mL/min/kg	7.70	73.7 mL/min/kg	229 ng·h/mL	115 min	7.32 L/kg	6.66 min	261 mL/min/kg	3.27%

Further lines, results first:

half-life at 5 μM [1]	CLint scaled at 5 μM [1]	pIC50 (PI3K (p110δ/p85α) (h))	clearance (CL) [2]	AUC(0-t) [2]	half-life [2]	Vd [2]	half-life at 5 μM [3]	CLint scaled at 5 μM [3]	bioavailability [2]	SMILES
3.29 min	755 mL/min/kg	7.36	97.5 mL/min/kg	169 ng·h/mL	60 min	7.07 L/kg	6.07 min	286 mL/min/kg		CCc1nc(-c2c(N)ncnc2N[C@@H](C)c2nc3cccc(Cl)c3c(=O)n2C2CC2)no1 [Ex. 61, (S)-2-(1-((6-amino-5-(5-ethyl-1,2,4-oxadiazol-3-yl)pyrimidin-4-yl)amino)ethyl)-5-chloro-3-cyclopropylquinazolin-4(3H)-one]
19.7 min	126 mL/min/kg	< 5.52	127 mL/min/kg	132 ng·h/mL	51.6 min	6.98 L/kg	52.4 min	47.4 mL/min/kg	5.49%	CC[C@@H](Nc1ncnc(N)c1-c1nc(C)no1)c1nc2cccc(Cl)c2c(=O)n1C1CC1 [Ex. 19, (R)-2-(1-((6-amino-5-(3-methyl-1,2,4-oxadiazol-5-yl)pyrimidin-4-yl)amino)propyl)-5-chloro-3-cyclopropylquinazolin-4(3H)-one]
13 min	191 mL/min/kg	6.45	73.7 mL/min/kg	231 ng·h/mL	34.2 min	2.51 L/kg	13.6 min	128 mL/min/kg	14%	C[C@H](Nc1ncnc(N)c1-c1ncn(C)n1)c1nc2cccc(Cl)c2c(=O)n1C1CC1 [Ex. 44, (S)-2-(1-((6-amino-5-(1-methyl-1H-1,2,4-triazol-3-yl)pyrimidin-4-yl)amino)-ethyl)-5-chloro-3-cyclopropylquinazolin-4(3H)-one]
7.2 min	345 mL/min/kg	8.22	67.5 mL/min/kg	246 ng·h/mL	80.4 min	4.9 L/kg	5.3 min	328 mL/min/kg	24.6%	CC[C@H](Nc1ncnc(N)c1-c1nc(C)no1)c1nc2cccc(C)c2c(=O)n1-c1ccccc1 [Ex. 37, (S)-2-(1-((6-amino-5-(3-methyl-1,2,4-oxadiazol-5-yl)pyrimidin-4-yl)amino)-propyl)-5-methyl-3-phenylquinazolin-4(3H)-one]
25 min	99.3 mL/min/kg	7.72	55.8 mL/min/kg	292 ng·h/mL	96.6 min	6.24 L/kg	25.4 min	97.7 mL/min/kg	57.5%	CC[C@H](Nc1ncnc(N)c1-c1nc(C)no1)c1nc2cccc(C)c2c(=O)n1C1CC1 [Ex. 21, (S)-2-(1-((6-amino-5-(3-methyl-1,2,4-oxadiazol-5-yl)pyrimidin-4-yl)amino)-propyl)-3-cyclopropyl-5-methylquinazolin-4(3H)-one]
34.1 min	72.9 mL/min/kg	6.62	38.2 mL/min/kg	429 ng·h/mL	97.2 min	3.88 L/kg	28 min	62.1 mL/min/kg	97.3%	CC[C@H](Nc1ncnc(N)c1-c1ncn(C)n1)c1nc2cccc(Cl)c2c(=O)n1C1CC1 [Ex. 53, (S)-2-(1-((6-amino-5-(1-methyl-1H-1,2,4-triazol-3-yl)pyrimidin-4-yl)amino)-propyl)-5-chloro-3-cyclopropylquinazolin-4(3H)-one]
16.3 min	152 mL/min/kg	7.89	61.7 mL/min/kg	263 ng·h/mL	111 min	6.11 L/kg	14.9 min	167 mL/min/kg	49.8%	CC[C@H](Nc1ncnc(N)c1-c1nc(C)no1)c1nc2cccc(C)c2c(=O)n1-c1ccccc1C [Ex. 27, (S)-2-(1-((6-amino-5-(3-methyl-1,2,4-oxadiazol-5-yl)pyrimidin-4-yl)amino)-propyl)-5-methyl-3-(o-tolyl)quinazolin-4(3H)-one]
